In brackets after ≈: the same amount, converted by molar mass.
Tests used:
Assay type in all cases: functional
Staphylococcus aureus [1] = experiment: Potency index, ratio of MIC for vancomycin to MIC for compound against Staphylococcus aureus ATCC 29213 biofilms incubated at 37 degC for 16 hrs
Enterococcus faecalis [2] = experiment: Antibiofilm activity against Enterococcus faecalis ATCC 29212 biofilms incubated at 37 degC for 16 hrs; conditions: ATCC 29212, 16 h
Staphylococcus aureus [3] = experiment: Antibiofilm activity against Staphylococcus aureus ATCC 29213 biofilms incubated at 37 degC for 16 hrs; conditions: ATCC 29213, 16 h
[4] = test system: Staphylococcus epidermidis; experiment: Antibiofilm activity against Staphylococcus epidermidis ATCC 12228 biofilms incubated at 37 degC for 16 hrs; conditions: ATCC 12228, 16 h
Enterococcus faecalis [5] = experiment: Antimicrobial activity against Enterococcus faecalis ATCC 29212 using sub-cultures from MIC method grown subsequently on Mueller-Hinton agar plates at 37 degC for 24 hrs; conditions: ATCC 29212, 24 h
[6] = test system: Staphylococcus epidermidis; experiment: Antimicrobial activity against Staphylococcus epidermidis ATCC 12228 using sub-cultures from MIC method grown subsequently on Mueller-Hinton agar plates at 37 degC for 24 hrs; conditions: ATCC 12228, 24 h
Staphylococcus aureus [7] = experiment: Bactericidal activity against Staphylococcus aureus ATCC 29213 using sub-cultures from MIC method grown subsequently on Mueller-Hinton agar plates at 37 degC for 24 hrs; conditions: ATCC 29213, 24 h
[8] = test system: Staphylococcus epidermidis; experiment: Antimicrobial activity against Staphylococcus epidermidis ATCC 12228 by broth microdilution method
Enterococcus faecalis [9] = experiment: Antimicrobial activity against Enterococcus faecalis ATCC 29212 by broth microdilution method
Staphylococcus aureus [10] = experiment: Antimicrobial activity against Staphylococcus aureus ATCC 29213 by broth microdilution method

| Compound | MIC (Enterococcus faecalis [2]) | MIC (Staphylococcus aureus [3]) | MIC [4] | MIC [8] | MIC (Enterococcus faecalis [9]) | MIC (Staphylococcus aureus [10]) | Ratio (Staphylococcus aureus [1]) | MBC (Enterococcus faecalis [5]) | MBC [6] | MBC (Staphylococcus aureus [7]) |
| --- | --- | --- | --- | --- | --- | --- | --- | --- | --- | --- |
| CN[C@H](CC(C)C)C(=O)N[C@H]1C(=O)N[C@@H](CC(N)=O)C(=O)N[C@H]2C(=O)N[C@H]3C(=O)N[C@H](C(=O)N[C@H](C(=O)O)c4cc(O)cc(O)c4-c4cc3ccc4O)[C@H](O)c3ccc(c(Cl)c3)Oc3cc2cc(c3O[C@@H]2O[C@H](CO)[C@@H](O)[C@H](O)[C@H]2O[C@H]2C[C@](C)(N)[C@H](O)[C@H](C)O2)Oc2ccc(cc2Cl)[C@H]1O [VANCOMYCIN] | 3.12 µg/mL (≈ 2.16 µM) | 3.12 µg/mL (≈ 2.16 µM) | 3.12 µg/mL (≈ 2.16 µM) | – | 3.12 µg/mL (≈ 2.16 µM) | – | – | 6.25 µg/mL (≈ 4.31 µM) | 3.12 µg/mL (≈ 2.16 µM) | 3.12 µg/mL (≈ 2.16 µM) |
| Cn1c(C(=O)NN2C(=O)CSC2c2cc(O)ccc2O)cc(Br)c1Br (stereo not given) | 12.5 µg/mL (≈ 25.4 µM) | 1.56 µg/mL (≈ 3.18 µM) | 3.12 µg/mL (≈ 6.36 µM) | 1.56 µg/mL (≈ 3.18 µM) | 6.25 µg/mL (≈ 12.7 µM) | 0.78 µg/mL (≈ 1.59 µM) | 2 | 12.5 µg/mL (≈ 25.4 µM) | 3.12 µg/mL (≈ 6.36 µM) | 3.12 µg/mL (≈ 6.36 µM) |
| COc1ccc(C2SCC(=O)N2NC(=O)c2cc(Br)c(Br)n2C)cc1O (stereo not given) | 12.5 µg/mL (≈ 24.7 µM) | 3.12 µg/mL (≈ 6.19 µM) | 3.12 µg/mL (≈ 6.19 µM) | 1.56 µg/mL (≈ 3.09 µM) | 3.12 µg/mL (≈ 6.19 µM) | 1.56 µg/mL (≈ 3.09 µM) | – | 12.5 µg/mL (≈ 24.7 µM) | 6.25 µg/mL (≈ 12.4 µM) | 6.25 µg/mL (≈ 12.4 µM) |
| Cn1c(C(=O)NN2C(=O)CSC2C/C=C/c2ccccc2)cc(Br)c1Br (stereo not given) | 6.25 µg/mL (≈ 12.5 µM) | 6.12 µg/mL (≈ 12.3 µM) | 6.25 µg/mL (≈ 12.5 µM) | 25 µg/mL (≈ 50.1 µM) | 25 µg/mL (≈ 50.1 µM) | 6.25 µg/mL (≈ 12.5 µM) | – | 12.5 µg/mL (≈ 25 µM) | 12.5 µg/mL (≈ 25 µM) | 12.5 µg/mL (≈ 25 µM) |
| Cn1c(C(=O)NN2C(=O)CCSC2c2ccccc2)cc(Br)c1Br (stereo not given) | 25 µg/mL (≈ 52.8 µM) | 12.5 µg/mL (≈ 26.4 µM) | 12.5 µg/mL (≈ 26.4 µM) | 6.25 µg/mL (≈ 13.2 µM) | 50 µg/mL (≈ 106 µM) | 12.5 µg/mL (≈ 26.4 µM) | – | 100 µg/mL (≈ 211 µM) | 12.5 µg/mL (≈ 26.4 µM) | 6.25 µg/mL (≈ 13.2 µM) |
| COc1ccc(C2SCC(=O)N2NC(=O)c2cc(Br)c(Br)n2C)c(O)c1 (stereo not given) | 12.5 µg/mL (≈ 24.7 µM) | 1.56 µg/mL (≈ 3.09 µM) | 3.12 µg/mL (≈ 6.19 µM) | 1.56 µg/mL (≈ 3.09 µM) | 12.5 µg/mL (≈ 24.7 µM) | 0.78 µg/mL (≈ 1.54 µM) | 2 | 25 µg/mL (≈ 49.5 µM) | 3.12 µg/mL (≈ 6.19 µM) | 6.25 µg/mL (≈ 12.4 µM) |
| Cn1c(C(=O)NN2C(=O)CCSC2C/C=C/c2ccccc2)cc(Br)c1Br (stereo not given) | 50 µg/mL (≈ 97.4 µM) | 25 µg/mL (≈ 48.7 µM) | 25 µg/mL (≈ 48.7 µM) | 6.25 µg/mL (≈ 12.2 µM) | 25 µg/mL (≈ 48.7 µM) | 12.5 µg/mL (≈ 24.4 µM) | – | 50 µg/mL (≈ 97.4 µM) | 12.5 µg/mL (≈ 24.4 µM) | 50 µg/mL (≈ 97.4 µM) |
| Cn1c(C(=O)NN2C(=O)CCSC2c2cc(O)ccc2O)cc(Br)c1Br (stereo not given) | 25 µg/mL (≈ 49.5 µM) | 6.25 µg/mL (≈ 12.4 µM) | 12.5 µg/mL (≈ 24.7 µM) | 6.25 µg/mL (≈ 12.4 µM) | 25 µg/mL (≈ 49.5 µM) | 3.12 µg/mL (≈ 6.19 µM) | – | 50 µg/mL (≈ 99 µM) | 12.5 µg/mL (≈ 24.7 µM) | 12.5 µg/mL (≈ 24.7 µM) |
| COc1ccc(C2SCCC(=O)N2NC(=O)c2cc(Br)c(Br)n2C)c(O)c1 (stereo not given) | 25 µg/mL (≈ 48.1 µM) | 6.25 µg/mL (≈ 12 µM) | 12.5 µg/mL (≈ 24.1 µM) | 6.25 µg/mL (≈ 12 µM) | 25 µg/mL (≈ 48.1 µM) | 3.12 µg/mL (≈ 6.02 µM) | – | 50 µg/mL (≈ 96.3 µM) | 12.5 µg/mL (≈ 24.1 µM) | 6.25 µg/mL (≈ 12 µM) |
| COc1ccc(C2SCCC(=O)N2NC(=O)c2cc(Br)c(Br)n2C)cc1O (stereo not given) | 25 µg/mL (≈ 48.1 µM) | 6.25 µg/mL (≈ 12 µM) | 12.5 µg/mL (≈ 24.1 µM) | 6.25 µg/mL (≈ 12 µM) | 25 µg/mL (≈ 48.1 µM) | 3.12 µg/mL (≈ 6.02 µM) | – | 50 µg/mL (≈ 96.3 µM) | 12.5 µg/mL (≈ 24.1 µM) | 6.25 µg/mL (≈ 12 µM) |

The next lines start with results.

| MIC (Enterococcus faecalis [2]) | MIC (Staphylococcus aureus [3]) | MIC [4] | MIC [8] | MIC (Enterococcus faecalis [9]) | MIC (Staphylococcus aureus [10]) | Compound | Ratio (Staphylococcus aureus [1]) | MBC (Enterococcus faecalis [5]) | MBC [6] | MBC (Staphylococcus aureus [7]) |
| --- | --- | --- | --- | --- | --- | --- | --- | --- | --- | --- |
| 6.25 µg/mL (≈ 12.8 µM) | 0.78 µg/mL (≈ 1.59 µM) | 3.12 µg/mL (≈ 6.39 µM) | 1.56 µg/mL (≈ 3.19 µM) | 6.25 µg/mL (≈ 12.8 µM) | 0.78 µg/mL (≈ 1.59 µM) | COc1ccc(C2SCC(=O)N2NC(=O)c2cc(Br)c(Br)n2C)cc1 (stereo not given) | 3 | 25 µg/mL (≈ 51.1 µM) | 3.12 µg/mL (≈ 6.39 µM) | 6.25 µg/mL (≈ 12.8 µM) |
| 25 µg/mL (≈ 49.7 µM) | 6.25 µg/mL (≈ 12.4 µM) | 12.5 µg/mL (≈ 24.8 µM) | 6.25 µg/mL (≈ 12.4 µM) | 50 µg/mL (≈ 99.4 µM) | 3.12 µg/mL (≈ 6.21 µM) | COc1ccc(C2SCCC(=O)N2NC(=O)c2cc(Br)c(Br)n2C)cc1 (stereo not given) | – | 100 µg/mL (≈ 199 µM) | 12.5 µg/mL (≈ 24.8 µM) | 6.25 µg/mL (≈ 12.4 µM) |
| 12.5 µg/mL (≈ 24.8 µM) | 0.78 µg/mL (≈ 1.55 µM) | 3.12 µg/mL (≈ 6.2 µM) | 1.56 µg/mL (≈ 3.09 µM) | 12.5 µg/mL (≈ 24.8 µM) | 0.78 µg/mL (≈ 1.55 µM) | Cn1c(C(=O)NN2C(=O)CSC2c2ccc([N+](=O)[O-])cc2)cc(Br)c1Br (stereo not given) | 3 | 25 µg/mL (≈ 49.6 µM) | 6.25 µg/mL (≈ 12.4 µM) | 6.25 µg/mL (≈ 12.4 µM) |
| 25 µg/mL (≈ 49.2 µM) | 6.25 µg/mL (≈ 12.3 µM) | 12.5 µg/mL (≈ 24.6 µM) | 6.25 µg/mL (≈ 12.3 µM) | 25 µg/mL (≈ 49.2 µM) | 3.12 µg/mL (≈ 6.16 µM) | Cn1c(C(=O)NN2C(=O)CCSC2c2ccc(Cl)cc2)cc(Br)c1Br (stereo not given) | – | 50 µg/mL (≈ 98.5 µM) | 12.5 µg/mL (≈ 24.6 µM) | 12.5 µg/mL (≈ 24.6 µM) |
| 25 µg/mL (≈ 50.9 µM) | 6.25 µg/mL (≈ 12.7 µM) | 12.5 µg/mL (≈ 25.4 µM) | 6.25 µg/mL (≈ 12.7 µM) | 25 µg/mL (≈ 50.9 µM) | 3.12 µg/mL (≈ 6.36 µM) | Cn1c(C(=O)NN2C(=O)CCSC2c2ccc(F)cc2)cc(Br)c1Br (stereo not given) | – | 50 µg/mL (≈ 102 µM) | 12.5 µg/mL (≈ 25.4 µM) | 12.5 µg/mL (≈ 25.4 µM) |
| 12.5 µg/mL (≈ 25.3 µM) | 1.56 µg/mL (≈ 3.16 µM) | 3.12 µg/mL (≈ 6.33 µM) | 1.56 µg/mL (≈ 3.16 µM) | 12.5 µg/mL (≈ 25.3 µM) | 0.78 µg/mL (≈ 1.58 µM) | Cn1c(C(=O)NN2C(=O)CSC2c2ccc(Cl)cc2)cc(Br)c1Br (stereo not given) | 2 | 25 µg/mL (≈ 50.6 µM) | 3.12 µg/mL (≈ 6.33 µM) | 3.12 µg/mL (≈ 6.33 µM) |
| 25 µg/mL (≈ 48.2 µM) | 6.25 µg/mL (≈ 12.1 µM) | 12.5 µg/mL (≈ 24.1 µM) | 6.25 µg/mL (≈ 12.1 µM) | 50 µg/mL (≈ 96.5 µM) | 3.12 µg/mL (≈ 6.03 µM) | Cn1c(C(=O)NN2C(=O)CCSC2c2ccc([N+](=O)[O-])cc2)cc(Br)c1Br (stereo not given) | – | 50 µg/mL (≈ 96.5 µM) | 12.5 µg/mL (≈ 24.1 µM) | 6.25 µg/mL (≈ 12.1 µM) |
| 12.5 µg/mL (≈ 27.2 µM) | 3.12 µg/mL (≈ 6.81 µM) | 12.5 µg/mL (≈ 27.2 µM) | 3.12 µg/mL (≈ 6.81 µM) | 12.5 µg/mL (≈ 27.2 µM) | 1.56 µg/mL (≈ 3.4 µM) | Cn1c(C(=O)NN2C(=O)CSC2c2ccccc2)cc(Br)c1Br (stereo not given) | – | 25 µg/mL (≈ 54.4 µM) | 6.25 µg/mL (≈ 13.6 µM) | 6.25 µg/mL (≈ 13.6 µM) |
| 12.5 µg/mL (≈ 26.2 µM) | 1.56 µg/mL (≈ 3.27 µM) | 3.12 µg/mL (≈ 6.55 µM) | 1.56 µg/mL (≈ 3.27 µM) | 3.12 µg/mL (≈ 6.54 µM) | 0.78 µg/mL (≈ 1.63 µM) | Cn1c(C(=O)NN2C(=O)CSC2c2ccc(F)cc2)cc(Br)c1Br (stereo not given) | 2 | 12.5 µg/mL (≈ 26.2 µM) | 3.12 µg/mL (≈ 6.55 µM) | 3.12 µg/mL (≈ 6.55 µM) |
